Tests used:
BaF3 (T315I mutant) = BaF3 (T315I mutant) (Homo sapiens, UniProt P00519, T315I, cells depend on it); assay: WST (CCK-8) anti-proliferative assay, BaF3 T315I mutant; settings: read-out: BaF3 (T315I mutant), 72 h treatment, CCK-8 readout OD 450 nm
Description: (§1) The anti-proliferative effect of representative compounds of the present disclosure was determined by a water-soluble tetrazolium (WST)-based assay using Cell Counting Kit-8 (CCK-8). Cells were seeded in 96-well plates and treated with different concentrations of test articles for 72 h. Each treatment was tested in triplicate. Briefly, a series of 9 concentrations were chosen for each test article and added at 100 μl/well into a 96-well plate. Each concentration was tested in triplicate. 100 μl of diluent was added into 3-6 wells in the same plate for cell control group, and another set of 3-6 wells was used as a blank control.
(§2) In each well, 100 μl of cell suspension (containing optimal cell numbers, which creates approximately 100% confluence of cells in control wells based on by the absorbance (OD) value) was dispensed into the same 96-well plate except for the blank well. The plate was then cultured at 37° C. in an incubator in an atmosphere with 5% CO2 for 72 h. At the end of the treatments, 20 μl/well of CCK-8 reagent was directly added to each well. The plate was then incubated at 37° C. in an incubator in an atmosphere with 5% CO2 for 2-4 hours.
(§3) The cells viability was calculated using the mean OD value of triplicated wells following the equation below: (OD sample−OD blank)/(OD cell control−OD blank)×100 IC50 values were calculated with Graphpad Prism 6.0 software using nonlinear regression (curve fitting) type data analysis.

BaF3(WT) = BaF3(WT) (Homo sapiens, UniProt P00519); assay: WST (CCK-8) anti-proliferative assay, BaF3 WT; settings: read-out: BaF3(WT); BaF3 WT cells, 72 h treatment, CCK-8 readout OD 450 nm
Description: as §1, §2, §3

Compound	GI50 (BaF3 (T315I mutant))	GI50 (BaF3(WT))
CC(C)N1c2c(-c3ccn[nH]3)cc(C(=O)Nc3ccc(OC(F)(F)Cl)cc3)cc2C2CCC(NC(=O)C3CN(C)C3)C21 (stereo not drawn) [Compound 29, N-(4-(chlorodifluoromethoxy)phenyl)-4-isopropyl-3-(1-methylazetidine-3-carboxamido)-5-(1H-pyrazol-5-yl)-1,2,3,3a,4,8b-hexahydrocyclopenta[b]indole-7-carboxamide]	1260 nM	177 nM
CC(C)N1c2c(-c3ccn[nH]3)cc(C(=O)Nc3ccc(OC(F)(F)Cl)cc3)cc2C2CCC(NC(=O)c3cocn3)C21 (stereo not drawn) [Compound 30]	64 nM	16 nM
CC(C)N1c2c(-c3ccn[nH]3)cc(C(=O)Nc3ccc(OC(F)(F)Cl)cc3)cc2C2CCC(NC(=O)C3CCOCC3)C21 (stereo not drawn) [Compound 31]	40 nM	15 nM
CC(C)N1c2c(-c3ccn[nH]3)cc(C(=O)Nc3ccc(OC(F)(F)Cl)cc3)cc2C2CCC(NC(=O)C3CCN(C)CC3)C21 (stereo not drawn) [Compound 32]	2110 nM	491 nM
CC(C)N1c2c(-c3ccn[nH]3)cc(C(=O)Nc3ccc(OC(F)(F)Cl)cc3)cc2C2CCC(NC(=O)Nc3cnccn3)C21 (stereo not drawn) [Compound 33, N-(4-(chlorodifluoromethoxy)phenyl)-4-isopropyl-3-(3-(pyrazin-2-yl)ureido)-5-(1H-pyrazol-5-yl)-1,2,3,3a,4,8b-hexahydrocyclopenta[b]indole-7-carboxamide]	109 nM	14 nM
CC(C)N1c2c(-c3ccn[nH]3)cc(C(=O)Nc3ccc(OC(F)(F)Cl)cc3)cc2C2CCC(Nc3cnccn3)C21 (stereo not drawn) [Compound 34, N-(4-(chlorodifluoromethoxy)phenyl)-4-isopropyl-3-(pyrazin-2-ylamino)-5-(1H-pyrazol-5-yl)-1,2,3,3a,4,8b-hexahydrocyclopenta[b]indole-7-carboxamide]	411 nM	17 nM
CC(C)N1c2c(-c3ccn[nH]3)cc(C(=O)Nc3ccc(OC(F)(F)Cl)cc3)cc2C2CCC(N3CCCC3=O)C21 (stereo not drawn) [Compound 35, N-(4-(chlorodifluoromethoxy)phenyl)-4-isopropyl-3-(2-oxopyrrolidin-1-yl)-5-(1H-pyrazol-5-yl)-1,2,3,3a,4,8b-hexahydrocyclopenta[b]indole-7-carboxamide]	55 nM	12 nM
CC(C)N1c2c(-c3ccn[nH]3)cc(C(=O)Nc3ccc(OC(F)(F)Cl)cc3)cc2C2CCC(N3CCCCC3=O)C21 (stereo not drawn) [Compound 36, N-(4-(chlorodifluoromethoxy)phenyl)-4-isopropyl-3-(2-oxopiperidin-1-yl)-5-(1H-pyrazol-5-yl)-1,2,3,3a,4,8b-hexahydrocyclopenta[b]indole-7-carboxamide]	84 nM	9 nM
CC(C)N1c2c(-c3ccn[nH]3)cc(C(=O)Nc3ccc(OC(F)(F)Cl)cc3)cc2C2CCC(N3CCCS3(=O)=O)C21 (stereo not drawn) [Compound 37, N-(4-(chlorodifluoromethoxy)phenyl)-3-(1,1-dioxidoisothiazolidin-2-yl)-4-isopropyl-5-(1H-pyrazol-5-yl)-1,2,3,3a,4,8b-hexahydrocyclopenta[b]indole-7-carboxamide]	245 nM	25 nM
CC(C)N1c2c(-c3ccn[nH]3)cc(C(=O)Nc3ccc(OC(F)(F)Cl)cc3)cc2C2CCC(N3CCNC3=O)C21 (stereo not drawn) [Compound 38, N-(4-(chlorodifluoromethoxy)phenyl)-4-isopropyl-3-(2-oxoimidazolidin-1-yl)-5-(1H-pyrazol-5-yl)-1,2,3,3a,4,8b-hexahydrocyclopenta[b]indole-7-carboxamide]	77 nM	18 nM
CC(C)N1c2c(-c3ccn[nH]3)cc(C(=O)Nc3ccc(OC(F)(F)Cl)cc3)cc2C2CCC(NC(=O)CCC(=O)O)C21 (stereo not drawn) [Compound 39, 4-((7-((4-(chlorodifluoromethoxy)phenyl)carbamoyl)-4-isopropyl-5-(1H-pyrazol-5-yl)-1,2,3,3a,4,8b-hexahydrocyclopenta[b]indol-3-yl)amino)-4-oxobutanoic acid]	5710 nM	2760 nM
CC(C)N1c2c(-c3ccn[nH]3)cc(C(=O)Nc3ccc(OC(F)(F)Cl)cc3)cc2C2CCN(C)CC21 (stereo not drawn) [Compound 40, N-(4-(chlorodifluoromethoxy)phenyl)-9-isopropyl-2-methyl-8-(1H-pyrazol-5-yl)-2,3,4,4a,9,9a-hexahydro-1H-pyrido[3,4-b]indole-6-carboxamide]	1110 nM	358 nM
CC(C)N1c2c(-c3ccn[nH]3)cc(C(=O)Nc3ccc(OC(F)(F)Cl)cc3)cc2C2CCN(CC(F)(F)F)CC21 (stereo not drawn) [Compound 41, N-(4-(chlorodifluoromethoxy)phenyl)-9-isopropyl-8-(1H-pyrazol-5-yl)-2-(2,2,2-trifluoroethyl)-2,3,4,4a,9,9a-hexahydro-1H-pyrido[3,4-b]indole-6-carboxamide]	850 nM	120 nM
CC(=O)N1CCC2c3cc(C(=O)Nc4ccc(OC(F)(F)Cl)cc4)cc(-c4ccn[nH]4)c3N(C(C)C)C2C1 (stereo not drawn) [Compound 42, 2-acetyl-N-(4-(chlorodifluoromethoxy)phenyl)-9-isopropyl-8-(1H-pyrazol-5-yl)-2,3,4,4a,9,9a-hexahydro-1H-pyrido[3,4-b]indole-6-carboxamide]	115 nM	38 nM
CC(=O)NC1CC2c3cc(C(=O)Nc4ccc(OC(F)(F)Cl)cc4)cc(-c4ccn[nH]4)c3N(C(C)C)C2C1 (stereo not drawn) [Compound 43, 2-acetamido-N-(4-(chlorodifluoromethoxy)phenyl)-4-isopropyl-5-(1H-pyrazol-5-yl)-1,2,3,3a,4,8b-hexahydrocyclopenta[b]indole-7-carboxamide]	768 nM	190 nM
CC(=O)N(C)C1CCC2c3cc(C(=O)Nc4ccc(OC(F)(F)Cl)cc4)cc(-c4ccn[nH]4)c3N(C(C)C)C21 (stereo not drawn) [Compound 44, N-(4-(chlorodifluoromethoxy)phenyl)-4-isopropyl-3-(N-methylacetamido)-5-(1H-pyrazol-5-yl)-1,2,3,3a,4,8b-hexahydrocyclopenta[b]indole-7-carboxamide]	122 nM	36 nM
CC(=O)NC1CCC2c3cc(C(=O)Nc4ccc(OC(F)(F)Cl)cc4)cc(-c4cc[nH]n4)c3N(CC3(C)CC3)C12 (stereo not drawn) [Compound 45]	111 nM	18 nM
CC(=O)N[C@@H]1CC[C@H]2c3cc(C(=O)Nc4ccc(OC(F)(F)Cl)cc4)cc(-c4cncc(F)c4)c3N(C(C)C)[C@@H]12 [Compound 46-A]	8 nM	2 nM
CC(=O)N[C@@H]1CC[C@H]2c3cc(C(=O)Nc4ccc(OC(F)(F)Cl)cc4)cc(-c4ccc(C#N)nc4)c3N(C(C)C)[C@@H]12 [Compound 47-A]	13 nM	5 nM
CC(=O)N[C@@H]1CC[C@H]2c3cc(C(=O)Nc4ccc(OC(F)(F)Cl)cc4)cc(-c4cc(F)cc(C#N)c4)c3N(C(C)C)[C@@H]12 [Compound 48-A]	14 nM	2 nM
CC(=O)NC1CCC2c3cc(C(=O)Nc4ccc(OC(F)(F)Cl)cc4)cc(-c4cc[nH]n4)c3N(CC(F)(F)F)C12 (stereo not drawn) [Compound 49]	125 nM	72 nM
